Assay results taken from patent US20150079673A1, “HEPATOCYTES IN CO-CULTURE AND USES THEREOF” (Colorado State University Research Foundation, priority 2013, published 2015).

Legend:
Assay type in all cases: cell-based
[1] = system: human hepatocytes maintained in micropatterned co-culture with 3T3-J2 murine embryonic fibroblasts; experiment: Gluconeogenesis (glucose production) in glycogen-depleted MPCC; settings: at 24 hours, following a varying dose of metformin; FIG. 9B
Description: To test for gluconeogenesis in diabetic hepatocytes in co-culture, the MPCC hepatocyte cultures comprising diabetic versus non-diabetic cells were subjected to glucose-free medium for 24-48 hours, thereby depleting the resident glycogen stores so that cells were only able to perform gluconeogenesis in the presence of the glucose precursors lactate and pyruvate. Gluconeogenesis rate was measured by incubating glycogen-depleted cultures with the substrates pyruvate and lactate, in glucose-free medium and glucose measurement in medium (Amplex Red) at 24 hours, thereby isolating the contribution of gluconeogenesis to glucose production, from potential residual glucose output due to glycogen depletion.
Cells were also tested under the glycogen depletion conditions as described above, for the effect of hormones on glucose production. The MPCCs were subjected to glycogen depletion for 12 hours, followed by stimulation of gluconeogenesis using lactate or pyruvate, in the presence or absence of insulin, glucagon or dexamethasone. Released glucose was measured 24 hours later.

[2] = system: human hepatocytes maintained in micropatterned co-culture with 3T3-J2 murine embryonic fibroblasts; experiment: Glycogen synthesis in MPCC, PAS stain of intracellular glycogen; settings: glycogen-depleted, 5 mM glucose + 100 nm hormone, 24 hours after treatment; FIG. 11B
Description: (§1) Glycogen lysis and glycogen synthesis in MPCC hepatocytes was also studied. The rate of glycogen lysis in MPCCs was measured by incubating cultures with glucose-free/hormone-free medium for 48 hours (fasting), followed by fixation of cultures using 4% paraformaldehyde and staining of intracellular glycogen (periodic acid Schiff stain (“PAS stain”)). The rate of glycogen synthesis was measured by first depleting glycogen stores as described above, followed by addition of glucose to medium (feeding) and staining of glycogen at specific time-points. Results at 24 hours are shown in FIGS. 11A-B. FIG. 11A is a panel of four photomicrographs of human hepatocytes maintained in micropatterned co-culture with 3T3-J2 murine embryonic fibroblasts, indicating glycogenolysis in the cells under four conditions: 25 mM glucose, glucose free, glucose free+100 nm glucagon, and glucose free+100 nm insulin, 24 hrs after treatment. […] MPCCs were cultured in glucose free media for 2 days and depleted of all glycogen prior to the addition of 5 mM glucose. […]

[3] = system: human hepatocytes maintained in micropatterned co-culture with 3T3-J2 murine embryonic fibroblasts; experiment: Glycogen lysis in MPCC, PAS stain of intracellular glycogen; settings: glucose free medium + 100 nm hormone, 24 hrs after treatment; FIG. 11A
Description: as §1

Row | Molecule | glucose production (gluconeogenesis) [1] | glycogen synthesis (intracellular glycogen, PAS stain) [2] | glycogenolysis (intracellular glycogen, PAS stain) [3]
1 | CN(C)C(=N)N=C(N)N [metformin] | dose-dependent blockage |  | 
2 | glucagon |  | did not synthesize glycogen | at a higher rate when stimulated by glucagon
3 | insulin |  | at a higher rate when stimulated by insulin | continued storing glycogen
